Reference: ChEMBL document CHEMBL3045827, “High osmolar contrast medium causes mild oxidation in liver, bladder, and ovary tissues from rats: vitamin C has protective role” (2010)

Tests used:
Rattus norvegicus [1] = assay: Inhibition of ionic high-osmolar contrast medium-induced oxidative stress in Rattus norvegicus Wistar albino (rat) ovary assessed as MDA level at 250 mg/kg/day administered through drinking water measured on 6th day by TBARS method (reference value: 0.986 +/- 0.323 %); format: functional, Female gonad; parameters: scale not given: the % may be the effect or the level left
Rattus norvegicus [2] = assay: Inhibition of ionic high-osmolar contrast medium-induced oxidative stress in Rattus norvegicus Wistar albino (rat) bladder assessed as MDA level at 250 mg/kg/day administered through drinking water measured on 6th day by TBARS method (reference value: 1.180 +/- 0.803 %); format: functional; parameters: scale not given: the % may be the effect or the level left
Rattus norvegicus [3] = assay: Inhibition of ionic high-osmolar contrast medium-induced oxidative stress in Rattus norvegicus Wistar albino (rat) liver assessed as NOS activity at 250 mg/kg/day administered through drinking water measured on 6th day (reference value: 0.208 +/- 0.031 mIU/ml); format: functional
Rattus norvegicus [4] = assay: Inhibition of ionic high-osmolar contrast medium-induced oxidative stress in Rattus norvegicus Wistar albino (rat) liver assessed as NO level at 250 mg/kg/day administered through drinking water measured on 6th day by Griess reaction method (reference value: 1.082 +/- 0.359%); format: functional; parameters: scale not given: the % may be the effect or the level left
Rattus norvegicus [5] = assay: Inhibition of ionic high-osmolar contrast medium-induced oxidative stress in Rattus norvegicus Wistar albino (rat) liver assessed as SOD activity at 250 mg/kg/day administered through drinking water measured on 6th day by NBT reduction method (reference value: 146.4 +/- 25.89 U/mg); format: functional
Rattus norvegicus [6] = assay: Inhibition of ionic high-osmolar contrast medium-induced oxidative stress in Rattus norvegicus Wistar albino (rat) liver assessed as GSH-Px activity at 250 mg/kg/day administered through drinking water measured on 6th day (reference value: 0.056 +/- 0.019 IU); format: functional
Rattus norvegicus [7] = assay: Inhibition of ionic high-osmolar contrast medium-induced oxidative stress in Rattus norvegicus Wistar albino (rat) liver assessed as catalase activity at 250 mg/kg/day administered through drinking water measured on 6th day (reference value: 119.8 +/- 13.43 IU); format: functional
Rattus norvegicus [8] = assay: Inhibition of ionic high-osmolar contrast medium-induced oxidative stress in Rattus norvegicus Wistar albino (rat) liver assessed as MDA level at 250 mg/kg/day administered through drinking water measured on 6th day by TBARS method (reference value: 0.579 +/- 0.129 %); format: functional; parameters: scale not given: the % may be the effect or the level left

Structure (SMILES): O=C1O[C@H]([C@@H](O)CO)C(O)=C1O [ASCORBIC ACID]
- Activity (Rattus norvegicus [1]): 0.762%
- Activity (Rattus norvegicus [2]): 0.821%
- Activity (Rattus norvegicus [3]): 0.224 mIU/ml
- Activity (Rattus norvegicus [4]): 0.965%
- Activity (Rattus norvegicus [5]): 193.2 U/mg
- Activity (Rattus norvegicus [6]): 0.05 IU
- Activity (Rattus norvegicus [7]): 118.9 IU
- Activity (Rattus norvegicus [8]): 0.49%
